In patent US9402821B2, “Methods and pharmaceutical compositions for treatment of cystic fibrosis” (INSERM (Institut National de la sante et de la Recherche …, priority 2012, dated 2016):

Biological target: CFTR (Homo sapiens, UniProt P13569)
Test: Short circuit current, cAMP-dependent Cl secretion (forskolin + IBMX) in HNEC
Type: cell-based
Parameters: Nasal polyps were obtained from non-CF requiring surgery for their nasal polyposis; endogenous in cells; host or cells: primary human nasal epithelial cells (HNEC) from nasal polyps of non-CF patients
Conditions: primary HNEC, air-liquid interface, 500 μM basolateral, 2 h, mean SEM of five filters
Protocol: B. Chloride activity in HeLa Wt cells was measured by MQAE assay, after 3 h of treatment by NSAID (500 μM) or diluent. CFTR activity was expressed in rate of UFA/sec, calculated by difference between ((Ft−F0)/t) with CFTR induction and ((Ft−F0)/t) without CFTR induction. […] C. Primary culture of human nasal epithelial cell (HNEC) grown on Snapwell filters (air-liquid interface) were exposed basolaterally to sulindac (500 μM) or vehicle for 2 h and immediately mounted into a voltage-clamp system to bioelectric measurements. Short circuit current was measured with addition of amiloride to evaluated amiloride sensitive transport or with forskolin and IBMX for induced cAMP-dependent Cl secretion.
Two cell models were used to the interface air-liquid model for ionic efflux assays by short circuit current and to dose the basolateral IL-8 secretion. Calu-3 are derived from lung adenocarcinoma and are able to polarized and express a high rate of endogenous CFTR. […] Transepithelial resistance and transepithelial potential difference were measured every 3 days using a microvoltmeter (World Precision Instruments, Astonbury, UK).
Cells were grown at 37° C. in a 5% CO2 incubator in DMEM with Glutamax (Invitrogen) and 10% fetal bovine serum (SVF). […] The effects of treatment in HNEC cultures on snapwell inserts were evaluated between days 10 and 16. […]

Chain of CFTR (P13569 whole entry): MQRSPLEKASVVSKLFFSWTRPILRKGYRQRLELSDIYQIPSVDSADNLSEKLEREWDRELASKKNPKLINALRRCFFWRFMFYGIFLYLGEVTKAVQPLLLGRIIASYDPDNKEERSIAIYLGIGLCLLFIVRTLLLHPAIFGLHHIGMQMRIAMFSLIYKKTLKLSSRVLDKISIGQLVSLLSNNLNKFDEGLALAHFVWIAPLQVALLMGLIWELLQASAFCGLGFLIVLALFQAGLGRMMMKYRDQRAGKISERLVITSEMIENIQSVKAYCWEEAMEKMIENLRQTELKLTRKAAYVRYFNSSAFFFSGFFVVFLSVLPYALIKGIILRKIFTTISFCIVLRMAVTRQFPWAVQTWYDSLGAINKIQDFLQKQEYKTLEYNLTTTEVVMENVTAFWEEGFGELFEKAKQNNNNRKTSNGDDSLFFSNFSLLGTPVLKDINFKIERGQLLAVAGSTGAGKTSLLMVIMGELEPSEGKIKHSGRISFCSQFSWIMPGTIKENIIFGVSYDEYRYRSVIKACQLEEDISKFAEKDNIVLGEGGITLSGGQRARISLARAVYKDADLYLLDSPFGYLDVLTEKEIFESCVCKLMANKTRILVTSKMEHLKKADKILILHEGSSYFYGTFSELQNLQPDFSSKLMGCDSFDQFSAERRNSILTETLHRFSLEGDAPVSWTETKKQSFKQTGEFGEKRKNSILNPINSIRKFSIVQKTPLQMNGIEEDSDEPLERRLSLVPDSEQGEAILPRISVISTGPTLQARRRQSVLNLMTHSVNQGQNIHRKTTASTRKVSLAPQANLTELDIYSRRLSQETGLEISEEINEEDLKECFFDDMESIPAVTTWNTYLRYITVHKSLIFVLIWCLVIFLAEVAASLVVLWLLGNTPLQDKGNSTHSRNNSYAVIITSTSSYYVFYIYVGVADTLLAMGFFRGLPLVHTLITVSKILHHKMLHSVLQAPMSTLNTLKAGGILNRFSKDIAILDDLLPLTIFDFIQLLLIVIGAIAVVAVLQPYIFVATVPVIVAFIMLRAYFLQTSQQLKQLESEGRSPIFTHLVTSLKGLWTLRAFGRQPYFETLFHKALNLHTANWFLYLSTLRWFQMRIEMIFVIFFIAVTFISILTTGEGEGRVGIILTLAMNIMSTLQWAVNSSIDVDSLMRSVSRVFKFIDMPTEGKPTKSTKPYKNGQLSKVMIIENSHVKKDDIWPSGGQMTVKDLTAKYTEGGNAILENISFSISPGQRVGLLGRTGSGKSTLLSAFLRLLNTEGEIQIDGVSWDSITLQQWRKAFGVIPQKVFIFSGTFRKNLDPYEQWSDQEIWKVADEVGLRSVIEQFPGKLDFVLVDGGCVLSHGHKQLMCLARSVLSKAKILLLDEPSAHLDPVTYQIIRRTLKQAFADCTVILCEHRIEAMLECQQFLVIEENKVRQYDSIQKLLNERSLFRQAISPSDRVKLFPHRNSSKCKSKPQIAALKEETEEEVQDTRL

## CC1=C(CC(=O)O)c2cc(F)ccc2/C1=C\c1ccc([S+](C)[O-])cc1 (centres unmarked) [sulindac, (Z)-5-fluoro-2-methyl-1-[p-(methylsulfinyl)benzylidene]-indene-3-acetic acid]
  increase of CFTR activity (short circuit current, forskolin + IBMX): increase of CFTR activity
Listed as Sulindac
  increase of CFTR activity (short circuit current, forskolin + IBMX): 46.35%
